Measured values reported in US8252793B2, “Bradykinin receptor agonists and uses thereof to treat ocular hypertension and glaucoma” (Alcon Research, Ltd., priority 2010, dated 2012).
pKi: −log10 of the molar value.

Tests used:
[1] = molecular target: T1, recombinant human bradykinin B2 receptor (Homo sapiens, UniProt P30411); assay: [3H]-BK competition radioligand binding to human cloned B2 receptor (CHO cell membranes); settings: 0.2 nM [3H]-bradykinin, CHO membranes, 60 min 23° C.; mean ± SEM or single value; Ki from IC50 by Cheng-Prusoff; read-out: [3H]-BK Binding to Human Cloned B2 Receptor (Ki)
T1 construct: expressed in transfected cells; host or cells: Chinese hamster ovary (CHO) cells, membrane homogenates
T1 sequence (P30411 1-391): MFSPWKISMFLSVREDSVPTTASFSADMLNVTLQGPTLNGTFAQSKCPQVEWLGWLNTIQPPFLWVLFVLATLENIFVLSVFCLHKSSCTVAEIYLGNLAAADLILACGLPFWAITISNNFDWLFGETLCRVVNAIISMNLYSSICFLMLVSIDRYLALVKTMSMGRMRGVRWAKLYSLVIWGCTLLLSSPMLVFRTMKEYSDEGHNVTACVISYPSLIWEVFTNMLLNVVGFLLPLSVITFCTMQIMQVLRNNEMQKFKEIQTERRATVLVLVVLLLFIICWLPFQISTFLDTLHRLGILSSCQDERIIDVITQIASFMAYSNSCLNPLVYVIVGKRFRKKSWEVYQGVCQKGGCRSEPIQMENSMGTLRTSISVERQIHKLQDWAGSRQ

[2] = test system: primary human ciliary muscle cells (h-CM); assay: Total prostaglandin (PG) release from primary h-CM cells (EIA); format: cell-based; settings: Homo sapiens, 1 h, 1 hour at 37° C., class symbols (in μM)
In short: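 Confluent primary h-CM cells, serum-starved (0.8% FBS) 24 h, were exposed to a 9-point concentration series (0.1 nM-10 μM) of bradykinin or BK agonist for 1 hour at 37° C. Total PG released was then quantified by EIA.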

[3] = molecular target: T2, BK receptors in human ciliary muscle cells (h-CM) (Homo sapiens, UniProt P30411); assay: Functional assay measuring [Ca2+]i mobilization (FLIPR) in h-CM cells; format: cell-based; settings: class symbols (in μM), read-out: CaM (EC50)
T2 construct: h-CM cells expressing BK receptors were seeded; endogenous in cells; host or cells: human ciliary muscle (h-CM) cells
T2 sequence (P30411 1-391): T1 sequence (P30411 1-391)
In short: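 Human ciliary muscle cells loaded 1 h at 23 °C with FLIPR calcium dye in HBSS, 20 mM HEPES, 2.5 mM probenecid, pH 7.4. EC50 by 4-parameter fit.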

COc1nc2c(OCc3c(Cl)ccc(N(C)C(=O)CNC(=O)CCc4ccc(NC(=O)CN)nc4)c3Cl)cccc2n1Cc1ccccn1 [Compound 74, 3-(6-(2-aminoacetamido)pyridin-3-yl)-N-(2-((2,4-dichloro-3-(((2-methoxy-1-(pyridin-2-ylmethyl)-1H-benzo[d]imidazol-4-yl)oxy)methyl)phenyl)(methyl)amino)-2-oxoethyl)propanamide] was tested, and the pKi [1] was 6.42, the EC50 [2] was 0.1 to 1 µM and the EC50 [3] was < 0.1 µM.
With COc1nc2c(OCc3c(Cl)ccc(N(C)C(=O)CNC(=O)COc4cnc(NC(C)=O)nc4)c3Cl)cccc2n1Cc1ccccn1 [Compound 75] the pKi [1] was 6.26, the EC50 [2] was 0.1 to 1 µM and the EC50 [3] was < 0.1 µM.
COc1nc2c(OCc3c(Cl)ccc(N(C)C(=O)CNC(=O)CCC4CN=C(N[N+](=O)[O-])NC4)c3Cl)cccc2n1Cc1ccccn1 (stereo not drawn) [Compound 76] was tested, and the pKi [1] was 6.63, the EC50 [2] was > 1 µM and the EC50 [3] was < 0.1 µM.
With COc1nc2c(OCc3c(Cl)ccc(N(C)C(=O)CNC(=O)CCc4cnc(NC(C)=O)nc4)c3Cl)cccc2n1Cc1ccccn1 [Compound 77] the pKi [1] was 6.64, the EC50 [2] was 0.1 to 1 µM and the EC50 [3] was < 0.1 µM.
CNC(=O)N1CCOC(CC(=O)NCC(=O)N(C)c2ccc(Cl)c(COc3cccc4c3nc(OC)n4Cc3ccccn3)c2Cl)C1 (stereo not drawn) [Compound 79] was tested, and the pKi [1] was 6.07, the EC50 [2] was > 1 µM and the EC50 [3] was 0.1 to 1 µM.
COc1nc2c(OCc3c(Cl)ccc(N(C)C(=O)CNC(=O)CN4CCOC(C(=O)NCCO)C4)c3Cl)cccc2n1Cc1ccccn1 (stereo not drawn) [Compound 80] was tested, and the pKi [1] was 6.55, the EC50 [2] was 0.1 to 1 µM and the EC50 [3] was < 0.1 µM.
For CNC(=O)C1CNCC(CC(=O)NCC(=O)N(C)c2ccc(Cl)c(COc3cccc4c3nc(OC)n4Cc3ccccn3)c2Cl)C1 (stereo not drawn) [Compound 81], the pKi [1] was 6.97, the EC50 [2] was > 1 µM and the EC50 [3] was < 0.1 µM.
For CNC(=O)c1ccc(CCC(=O)NCC(=O)N(C)c2ccc(Cl)c(COc3cccc4c3nc(OC)n4Cc3nccn3C)c2Cl)cc1 [Compound 82], the pKi [1] was 6.69, the EC50 [2] was > 1 µM and the EC50 [3] was < 0.1 µM.
For CNCc1ccc(CCC(=O)NCC(=O)N(C)c2ccc(Cl)c(COc3cccc4c3nc(OC)n4Cc3ccccn3)c2Cl)cc1 [Compound 83], the pKi [1] was 6.48, the EC50 [2] was > 1 µM and the EC50 [3] was < 0.1 µM.
In the case of COc1nc2c(OCc3c(Cl)ccc(N(C)C(=O)CNC(=O)CN4CCO[C@@H](C(=O)NC5CC5)C4)c3Cl)cccc2n1Cc1ccccn1 [Compound 84], the pKi [1] was 7.11, the EC50 [2] was < 0.1 µM and the EC50 [3] was < 0.1 µM.
